Reference: patent US20250064761A1, “SUBSTITUTED BENZAMIDES AND THEIR USE IN THERAPY” (PHARMACYL AB, priority 2018, published 2025)
Counter-ions that a name gives are not always drawn.

Experiments:
[1] = test system: DSS induced colitis in Balb/c mice; test: Dextran sulfate sodium (DSS) induced inflammatory bowel disease in mice; type: in vivo; set-up: key to Blood in the Stool score LS means ± SE: 0 = normal, 2 = Hemoccult+, 4 = gross bleeding; key to Disease Activity Index LS means ± SE: sum of stool, blood and weight-loss scores (each 0-4), max 12
Method: The experiment was performed using 6- to 8-week old female Balb/c mice after a one-week acclimatization period. The mice weighed 18-25 g, were purchased from Taconic (Denmark) and were maintained in a temperature and light-controlled facility with free access to standard rodent chow and water. Mice were randomized to the respective groups five days before start of treatment and were kept 5 to 6 animals […] per cage. […] The DSS intake was assessed daily. SASP (from Sigma-Aldrich, Sweden) was first dissolved in 0.2 M sodium hydroxide (NaOH) at a concentration higher than the required final concentration. Phosphate buffered saline (PBS) was added to the desired concentration and the pH was adjusted to 7.5-8.0 with NaOH or hydrochloric acid. SASP remained completely dissolved at this pH. Cpd A was dissolved in PBS to the desired concentration. All animal groups had free access to 5% DSS water solution for the entire test period. Treatments were administered from day 0 to day 5, either orally by gavage (SASP) or intraperitoneally (Cpd A), and in an administration volume of 5 ml/kg, twice daily with approximately an 8-hour interval. The control group (DSS only) received water (0.2 ml) orally twice daily.
The parameters recorded in the experiment were stool consistency (0, normal; 2, loose stools; 4, watery diarrhoea), occurrence of blood in the stool (0, normal; 2, Hemoccult+; 4, gross bleeding), and body weight loss (0, none; 1, 1-5%; 2, 5-10%; 3, 10-20%; 4, >20%). Disease activity index (DAI) was calculated by summarizing the scores of these three parameters. Also the colon length and the colonic content of myeloperoxidase (MPO) were recorded. Data was statistically evaluated with analysis of variance (ANOVA). Least-squares means (LS means), and standard error (SE) of LS means were calculated.

[2] = test system: LPS-induced TNF-production in RAW264.7 murine macrophage cells; test: Suppression of LPS-induced TNF-α production in macrophages (ELISA); type: cell-based; details: Mus musculus, RAW264.7, read-out: % Inhibition of TNF-production
Method: The RAW264.7 macrophage line was maintained in DMEM supplemented with 5% FBS at 37° C. in a 5% CO2-humidified air environment. The RAW264.7 cells were seeded in 96-well plates at a density of 1×10^5/ml and a volume of 200 μl/well. The cells were incubated for 24 h in medium supplemented with 10% FBS and were then pre-incubated with or without the indicated concentrations of test substances for 2 h prior to the addition of LPS (1 μg/ml). The supernatants were subsequently harvested at various time points and production of the proinflammatory cytokine TNF-α in the culture medium was determined using a commercially available enzyme-linked immunosorbent assay (ELISA) kit according to the manufacturer's protocol.
Effects of some AABZs of the invention at 1 mM on LPS-induced TNF-production in RAW264.7 murine macrophage cells are shown in Table 2.

[3] = test system: collagen-induced arthritis in DBA/1 mice; test: Collagen-induced arthritis; type: in vivo; details: 200 mg/kg/day in drinking water from day 14 to day 49
Method: The experiment was performed using 9-week old male DBA/1 mice after a two-week acclimatization period. The mice were purchased from B&M (Denmark), and were maintained in a temperature and light-controlled facility with free access to standard rodent chow and water. Following the acclimatization period, the mice (10 per treatment group) were anesthesized with Enflurane and immunized intradermally in the base of the tail with […] of a 1:1 emulsion consisting of Freund's Complete Adjuvant H37Ra (Difco) and 2 mg/mL bovine type II collagen (Elastin Products, Owensville, MO) in 0.1 M acetic acid. On day 14 post-immunization, the mice were given ad lib access to drinking water containing Cpd A, with treatment continuing daily until termination of the experiment (day 49). The Cpd A intake was monitored by weighing the drinking bottles at the water renewal twice per week. The control group received water ad lib.
The mice were monitored for clinical signs of arthritis three times a week from immunization to day 49. […] The four measurements were summed for each mouse, and group averages were calculated. Mice with a score >12 were sacrificed. In the scoring protocol, the last observation carried forward (LOCF) method was used.
Mean onset day was defined as the mean day of onset in mice being affected. […]
Statistical significance was determined using Mann-Whitney Rank Sum test. […]

dopamine D2 receptor = dopamine D2 receptor (Rattus norvegicus, UniProt P61169); type: binding; details: in vitro; 125I-spiperone
dopamine D2 receptor, sequence (P61169 whole entry, looked up): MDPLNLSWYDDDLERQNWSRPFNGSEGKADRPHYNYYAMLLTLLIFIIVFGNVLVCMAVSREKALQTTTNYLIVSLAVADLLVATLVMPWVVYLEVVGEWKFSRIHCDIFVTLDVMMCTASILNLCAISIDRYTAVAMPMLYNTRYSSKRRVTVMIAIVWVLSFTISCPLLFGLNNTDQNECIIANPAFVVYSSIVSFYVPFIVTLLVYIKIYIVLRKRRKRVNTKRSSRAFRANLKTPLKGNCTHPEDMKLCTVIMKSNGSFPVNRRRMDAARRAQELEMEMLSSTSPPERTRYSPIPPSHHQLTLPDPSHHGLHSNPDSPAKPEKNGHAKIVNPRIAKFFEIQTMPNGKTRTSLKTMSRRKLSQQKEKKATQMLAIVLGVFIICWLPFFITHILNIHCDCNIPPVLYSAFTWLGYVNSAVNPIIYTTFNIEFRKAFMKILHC

O=C(O)c1cc(/N=N/c2ccc(S(=O)(=O)Nc3ccccn3)cc2)ccc1O [SASP, sulfasalazine, reference compound]
frequency of diarrhoea (stool consistency score of 2 and 4) ([1]; day 3, 40 mg/kg/day bid po): 8%
Blood in the Stool Percent Reduction of Score vs control ([1]; day 5, 40 mg/kg/day bid po): 42%
Blood in the Stool score LS means ± SE ([1]; day 5, 40 mg/kg/day bid po): 1.4±0.2
Disease Activity Index LS means ± SE ([1]; day 5, 40 mg/kg/day bid po): 4.4 ± 0.4
Disease Activity Index Percent Reduction of Score vs control ([1]; day 5, 40 mg/kg/day bid po): 36%
frequency of diarrhoea (stool consistency score of 2 and 4) ([1]; day 5, 40 mg/kg/day bid po): 71%

CCC(=O)Nc1ccc(C(=O)NCCN(CC)CC)cc1Cl [4-Propanoylamino-3-chloro-N-[2-(diethylamino)ethyl]benzamide hydrochloride]
inhibition at 1000 µM [2]: 50%

CCN(CC)CCNC(=O)c1ccc(NC(=O)C(C)C)c(Cl)c1 [4-Isobutyrylamino-3-chloro-N-[2-(diethylamino)ethyl]benzamide hydrochloride]
inhibition at 1000 µM [2]: 63%

CCN(CC)CCNC(=O)c1ccc(NC(C)=O)c(Cl)c1 [Cpd A, 4-Acetamido-3-chloro-N-[2-(diethylamino)ethyl]benzamide hydrochloride]
delay of mean onset of disease compared to the control group ([3]; p=0.02): 5.8 days
reduction of severity of arthritis score compared to the control group ([3]; p=0.05): 1.6
Disease Activity Index score reduction by Cpd A versus SASP treatment ([1]; Cpd A 100 mg/kg/day bid ip vs SASP 40 mg/kg/day bid po, p<0.016): 60%
Blood in the Stool Percent Reduction of Score vs control ([1]; day 5, 50 mg/kg/day bid ip): 9%
Blood in the Stool score LS means ± SE ([1]; day 5, 50 mg/kg/day bid ip): 2.2 ± 0.3
Disease Activity Index LS means ± SE ([1]; day 5, 50 mg/kg/day bid ip): 6.4 ± 0.5
Disease Activity Index Percent Reduction of Score vs control ([1]; day 5, 50 mg/kg/day bid ip): 7%
Blood in the Stool Percent Reduction of Score vs control ([1]; day 5, 100 mg/kg/day bid ip): 96%
Disease Activity Index LS means ± SE ([1]; day 5, 100 mg/kg/day bid ip): 1.7 ± 1.0
Disease Activity Index Percent Reduction of Score vs control ([1]; day 5, 100 mg/kg/day bid ip): 75%
Blood in the Stool score LS means ± SE ([1]; day 5, 100 mg/kg/day bid ip, hydrochloride): 0.1±0.5
inhibition at 1000 µM [2]: 45%
affinity for the dopamine D2 subtype receptor (in words) (dopamine D2 receptor): very low affinity
